From ChEMBL document CHEMBL3046801, “Synthesis of 2-R1-2-(4-(2-fluoroethoxy)benzamido)acetate as potential PET imaging agents” (Med Chem Res, 2012)

Assays:
Spleen [1] = test: Biodistribution in tumor bearing Mus musculus KM (mouse) spleen at 5 min by microPET imaging analysis; type: ADME, organism-based; details: in vivo
Heart [2] = test: Biodistribution in tumor bearing Mus musculus KM (mouse) heart at 15 min by microPET imaging analysis; type: ADME, organism-based; details: in vivo, 0.25 h
Muscle tissue [3] = test: Biodistribution in tumor bearing Mus musculus KM (mouse) muscle at 60 min by microPET imaging analysis; type: ADME, organism-based; details: in vivo, 1 h
Blood [4] = test: Biodistribution in tumor bearing Mus musculus KM (mouse) blood at 5 min by microPET imaging analysis; type: ADME, organism-based; details: in vivo
Muscle tissue [5] = test: Biodistribution in tumor bearing Mus musculus KM (mouse) muscle at 30 min by microPET imaging analysis; type: ADME, organism-based; details: in vivo, 0.5 h
Brain [6] = test: Biodistribution in tumor bearing Mus musculus KM (mouse) brain at 60 min by microPET imaging analysis; type: ADME, organism-based; details: in vivo, 1 h
Spleen [7] = test: Biodistribution in tumor bearing Mus musculus KM (mouse) spleen at 30 min by microPET imaging analysis; type: ADME, organism-based; details: in vivo, 0.5 h
Kidney [8] = test: Biodistribution in tumor bearing Mus musculus KM (mouse) kidney at 15 min by microPET imaging analysis; type: ADME, organism-based; details: in vivo, 0.25 h
Heart [9] = test: Biodistribution in tumor bearing Mus musculus KM (mouse) heart at 60 min by microPET imaging analysis; type: ADME, organism-based; details: in vivo, 1 h
Kidney [10] = test: Biodistribution in tumor bearing Mus musculus KM (mouse) kidney at 120 min by microPET imaging analysis; type: ADME, organism-based; details: in vivo, 2 h
Lung [11] = test: Biodistribution in tumor bearing Mus musculus KM (mouse) Lung at 30 min by microPET imaging analysis; type: ADME, organism-based; details: in vivo, 0.5 h
Blood [12] = test: Biodistribution in tumor bearing Mus musculus KM (mouse) blood at 120 min by microPET imaging analysis; type: ADME, organism-based; details: in vivo, 2 h
Blood [13] = test: Biodistribution in tumor bearing Mus musculus KM (mouse) blood at 15 min by microPET imaging analysis; type: ADME, organism-based; details: in vivo, 0.25 h
Liver [14] = test: Biodistribution in tumor bearing Mus musculus KM (mouse) liver at 5 min by microPET imaging analysis; type: ADME, organism-based; details: in vivo
Muscle tissue [15] = test: Biodistribution in tumor bearing Mus musculus KM (mouse) muscle at 120 min by microPET imaging analysis; type: ADME, organism-based; details: in vivo, 2 h
Heart [16] = test: Biodistribution in tumor bearing Mus musculus KM (mouse) heart at 120 min by microPET imaging analysis; type: ADME, organism-based; details: in vivo, 2 h
Tumour [17] = test: Biodistribution in Mus musculus KM (mouse) tumor at 30 min by microPET imaging analysis; type: ADME, organism-based, Neoplasm; details: in vivo, 0.5 h
Spleen [18] = test: Biodistribution in tumor bearing Mus musculus KM (mouse) spleen at 15 min by microPET imaging analysis; type: ADME, organism-based; details: in vivo, 0.25 h
Brain [19] = test: Biodistribution in tumor bearing Mus musculus KM (mouse) brain at 120 min by microPET imaging analysis; type: ADME, organism-based; details: in vivo, 2 h
Liver [20] = test: Biodistribution in tumor bearing Mus musculus KM (mouse) liver at 60 min by microPET imaging analysis; type: ADME, organism-based; details: in vivo, 1 h
Lung [21] = test: Biodistribution in tumor bearing Mus musculus KM (mouse) Lung at 60 min by microPET imaging analysis; type: ADME, organism-based; details: in vivo, 1 h
Spleen [22] = test: Biodistribution in tumor bearing Mus musculus KM (mouse) spleen at 60 min by microPET imaging analysis; type: ADME, organism-based; details: in vivo, 1 h
Nucleic Acid [23] = test: Ratio of drug uptake in tumor to muscle in Mus musculus KM (mouse) at 30 min; type: ADME, nucleic-acid assay; details: in vivo, 0.5 h
Lung [24] = test: Biodistribution in tumor bearing Mus musculus KM (mouse) Lung at 5 min by microPET imaging analysis; type: ADME, organism-based; details: in vivo
Kidney [25] = test: Biodistribution in tumor bearing Mus musculus KM (mouse) kidney at 30 min by microPET imaging analysis; type: ADME, organism-based; details: in vivo, 0.5 h
Nucleic Acid [26] = test: Ratio of drug uptake in tumor to muscle in Mus musculus KM (mouse) at 15 min; type: ADME, nucleic-acid assay; details: in vivo, 0.25 h
Lung [27] = test: Biodistribution in tumor bearing Mus musculus KM (mouse) Lung at 120 min by microPET imaging analysis; type: ADME, organism-based; details: in vivo, 2 h
Kidney [28] = test: Biodistribution in tumor bearing Mus musculus KM (mouse) kidney at 5 min by microPET imaging analysis; type: ADME, organism-based; details: in vivo
Heart [29] = test: Biodistribution in tumor bearing Mus musculus KM (mouse) heart at 5 min by microPET imaging analysis; type: ADME, organism-based; details: in vivo
Tumour [30] = test: Biodistribution in Mus musculus KM (mouse) tumor at 120 min by microPET imaging analysis; type: ADME, organism-based, Neoplasm; details: in vivo, 2 h
Nucleic Acid [31] = test: Ratio of drug uptake in tumor to muscle in Mus musculus KM (mouse) at 60 min; type: ADME, nucleic-acid assay; details: in vivo, 1 h
Muscle tissue [32] = test: Biodistribution in tumor bearing Mus musculus KM (mouse) muscle at 15 min by microPET imaging analysis; type: ADME, organism-based; details: in vivo, 0.25 h
Spleen [33] = test: Biodistribution in tumor bearing Mus musculus KM (mouse) spleen at 120 min by microPET imaging analysis; type: ADME, organism-based; details: in vivo, 2 h
Heart [34] = test: Biodistribution in tumor bearing Mus musculus KM (mouse) heart at 30 min by microPET imaging analysis; type: ADME, organism-based; details: in vivo, 0.5 h
Brain [35] = test: Biodistribution in tumor bearing Mus musculus KM (mouse) brain at 15 min by microPET imaging analysis; type: ADME, organism-based; details: in vivo, 0.25 h
Blood [36] = test: Biodistribution in tumor bearing Mus musculus KM (mouse) blood at 60 min by microPET imaging analysis; type: ADME, organism-based; details: in vivo, 1 h
Tumour [37] = test: Biodistribution in Mus musculus KM (mouse) tumor at 5 min by microPET imaging analysis; type: ADME, organism-based, Neoplasm; details: in vivo
Liver [38] = test: Biodistribution in tumor bearing Mus musculus KM (mouse) liver at 120 min by microPET imaging analysis; type: ADME, organism-based; details: in vivo, 2 h
Brain [39] = test: Biodistribution in tumor bearing Mus musculus KM (mouse) brain at 5 min by microPET imaging analysis; type: ADME, organism-based; details: in vivo
Kidney [40] = test: Biodistribution in tumor bearing Mus musculus KM (mouse) kidney at 60 min by microPET imaging analysis; type: ADME, organism-based; details: in vivo, 1 h
Tumour [41] = test: Biodistribution in Mus musculus KM (mouse) tumor at 15 min by microPET imaging analysis; type: ADME, organism-based, Neoplasm; details: in vivo, 0.25 h
Liver [42] = test: Biodistribution in tumor bearing Mus musculus KM (mouse) liver at 30 min by microPET imaging analysis; type: ADME, organism-based; details: in vivo, 0.5 h
Lung [43] = test: Biodistribution in tumor bearing Mus musculus KM (mouse) Lung at 15 min by microPET imaging analysis; type: ADME, organism-based; details: in vivo, 0.25 h
Blood [44] = test: Biodistribution in tumor bearing Mus musculus KM (mouse) blood at 30 min by microPET imaging analysis; type: ADME, organism-based; details: in vivo, 0.5 h
Brain [45] = test: Biodistribution in tumor bearing Mus musculus KM (mouse) brain at 30 min by microPET imaging analysis; type: ADME, organism-based; details: in vivo, 0.5 h
Tumour [46] = test: Biodistribution in Mus musculus KM (mouse) tumor at 60 min by microPET imaging analysis; type: ADME, organism-based, Neoplasm; details: in vivo, 1 h
Liver [47] = test: Biodistribution in tumor bearing Mus musculus KM (mouse) liver at 15 min by microPET imaging analysis; type: ADME, organism-based; details: in vivo, 0.25 h
Muscle tissue [48] = test: Biodistribution in tumor bearing Mus musculus KM (mouse) muscle at 5 min by microPET imaging analysis; type: ADME, organism-based; details: in vivo
Nucleic Acid [49] = test: Ratio of drug uptake in tumor to muscle in Mus musculus KM (mouse) at 120 min; type: ADME; details: in vivo, 2 h

## OC[C@H]1OC(O)[C@H]([18F])[C@@H](O)[C@@H]1O (some centres undefined) [FLUDEOXYGLUCOSE F 18]
Spleen [1]
  Drug uptake: 1.92 % ID/g
Heart [2]
  Drug uptake: 6.12 % ID/g
Muscle tissue [3]
  Drug uptake: 1.99 % ID/g
Blood [4]
  Drug uptake: 2.01 % ID/g
Muscle tissue [5]
  Drug uptake: 2.08 % ID/g
Brain [6]
  Drug uptake: 3.51 % ID/g
Spleen [7]
  Drug uptake: 1.75 % ID/g
Kidney [8]
  Drug uptake: 2.05 % ID/g
Heart [9]
  Drug uptake: 8.87 % ID/g
Kidney [10]
  Drug uptake: 0.52 % ID/g
Lung [11]
  Drug uptake: 1.4 % ID/g
Blood [12]
  Drug uptake: 0.15 % ID/g
Blood [13]
  Drug uptake: 0.94 % ID/g
Liver [14]
  Drug uptake: 1.85 % ID/g
Muscle tissue [15]
  Drug uptake: 1.85 % ID/g
Heart [16]
  Drug uptake: 9.6 % ID/g
Tumour [17]
  Drug uptake: 3.16 % ID/g
Spleen [18]
  Drug uptake: 1.98 % ID/g
Brain [19]
  Drug uptake: 1.89 % ID/g
Liver [20]
  Drug uptake: 0.5 % ID/g
Lung [21]
  Drug uptake: 1.52 % ID/g
Spleen [22]
  Drug uptake: 1.83 % ID/g
Nucleic Acid [23]
  Ratio: 1.52
Lung [24]
  Drug uptake: 2.37 % ID/g
Kidney [25]
  Drug uptake: 1.07 % ID/g
Nucleic Acid [26]
  Ratio: 1.28
Lung [27]
  Drug uptake: 1.05 % ID/g
Kidney [28]
  Drug uptake: 3.36 % ID/g
Heart [29]
  Drug uptake: 5.33 % ID/g
Tumour [30]
  Drug uptake: 3.12 % ID/g
Nucleic Acid [31]
  Ratio: 1.94
Muscle tissue [32]
  Drug uptake: 2.33 % ID/g
Spleen [33]
  Drug uptake: 1.35 % ID/g
Heart [34]
  Drug uptake: 6.42 % ID/g
Brain [35]
  Drug uptake: 4.55 % ID/g
Blood [36]
  Drug uptake: 0.19 % ID/g
Tumour [37]
  Drug uptake: 1.96 % ID/g
Liver [38]
  Drug uptake: 0.49 % ID/g
Brain [39]
  Drug uptake: 3.81 % ID/g
Kidney [40]
  Drug uptake: 0.9 % ID/g
Tumour [41]
  Drug uptake: 2.97 % ID/g
Liver [42]
  Drug uptake: 0.46 % ID/g
Lung [43]
  Drug uptake: 1.96 % ID/g
Blood [44]
  Drug uptake: 0.29 % ID/g
Brain [45]
  Drug uptake: 4.25 % ID/g
Tumour [46]
  Drug uptake: 3.86 % ID/g
Liver [47]
  Drug uptake: 0.92 % ID/g
Muscle tissue [48]
  Drug uptake: 2.92 % ID/g
Nucleic Acid [49]
  Ratio: 1.74
